Experimental data from patent publication US20230220035A1 (DONG-A ST CO., LTD., published 2023).

Legend:
[1] = target: glucagon receptor (Homo sapiens, UniProt P47871); experiment: Human glucagon receptor activation assay (CRE-luciferase); type: cell-based; parameters: host or cells: CHO-K1; conditions: CHO-K1 cells transiently transfected; for Emax: 6 h, relative to glucagon, read-out: GCG receptor Maximum activation (% vs GCG); for EC50: 6 hours, 0.1% BSA, read-out: GCG receptor EC50
Method: (§1) Then, the resulting increased luciferase activity was evaluated as a measurement of the effect on each receptor activation.
(§2) For positive control, endogenous ligand GLP-1 or glucagon was used for respective evaluation. The above-mentioned acylated oxyntomodulin peptide analogs of Comparative Example 8-12 were synthesized and used as comparative examples.
(§3) After 3 hours of transfection, medium was exchanged to Alpha Minimal Essential Medium (α-MEM) comprising 10% fetal bovine serum (FBS). Next day, the medium was exchanged to α-MEM comprising the acylated oxyntomodulin peptide analog of the present invention and 0.1% bovine serum albumin (BSA). After 6 hours, dual luciferase assay reagent (Promega) was added in the same amount as the medium in which the cells were submerged, and firefly luciferase and Renilla luciferase activities were successively measured. Firefly luciferase activity values were corrected against Renilla luciferase activity to yield transfection efficiency.

[2] = in vivo; conditions: cynomolgus monkey, sc
Source text: Cynomolgus monkeys were used to evaluate the pharmacokinetics in monkeys of the acylated oxyntomodulin peptide analogs according to the present invention.

[3] = target: GLP-1 receptor (Homo sapiens, UniProt P43220); experiment: Human GLP-1 receptor activation assay (CRE-luciferase); type: cell-based; parameters: host or cells: CHO-K1; conditions: for Emax: CHO-K1, 6 h, read-out: GLP-1 receptor Maximum activation (% vs GLP-1); for EC50: CHO-K1 cells transiently transfected, luciferase, 6 hours, 0.1% BSA
Method: as §1, §2, §3

Sequence of GLP-1 receptor (P43220 24-463): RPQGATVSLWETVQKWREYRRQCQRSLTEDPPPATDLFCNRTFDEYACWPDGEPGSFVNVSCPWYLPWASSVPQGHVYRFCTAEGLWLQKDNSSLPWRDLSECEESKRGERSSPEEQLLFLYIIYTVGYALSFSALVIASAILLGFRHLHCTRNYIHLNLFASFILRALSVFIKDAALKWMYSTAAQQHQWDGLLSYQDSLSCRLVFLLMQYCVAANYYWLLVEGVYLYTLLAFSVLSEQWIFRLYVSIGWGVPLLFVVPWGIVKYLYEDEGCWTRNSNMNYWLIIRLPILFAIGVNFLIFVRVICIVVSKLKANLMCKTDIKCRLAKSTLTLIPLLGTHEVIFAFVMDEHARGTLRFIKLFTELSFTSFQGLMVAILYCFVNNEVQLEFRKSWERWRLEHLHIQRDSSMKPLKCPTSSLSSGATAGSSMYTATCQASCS
Sequence of glucagon receptor (P47871 26-477): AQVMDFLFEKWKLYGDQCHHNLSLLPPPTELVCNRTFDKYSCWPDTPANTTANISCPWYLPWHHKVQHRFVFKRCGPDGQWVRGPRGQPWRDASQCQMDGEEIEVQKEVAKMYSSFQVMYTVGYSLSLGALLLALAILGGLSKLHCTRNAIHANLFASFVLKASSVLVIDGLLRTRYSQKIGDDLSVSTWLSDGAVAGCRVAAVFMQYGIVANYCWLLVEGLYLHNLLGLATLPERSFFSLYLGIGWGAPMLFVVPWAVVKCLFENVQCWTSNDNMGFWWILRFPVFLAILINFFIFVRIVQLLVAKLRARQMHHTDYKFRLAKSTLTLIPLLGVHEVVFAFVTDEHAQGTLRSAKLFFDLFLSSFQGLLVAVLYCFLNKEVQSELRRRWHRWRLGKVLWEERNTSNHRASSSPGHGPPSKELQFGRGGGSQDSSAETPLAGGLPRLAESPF

Row | Structure (SMILES) | Emax [1] | EC50 [1] | half-life ([2]; Monkey PK (S.C. half-life)) | half-life ([2]; monkey PK half-life) | Emax [3] | EC50 [3]
1 | CCCCCCCCCCCCCCCCCC(=O)N[C@@H](CCC(=O)NCCOCCOCC(=O)NCCOCCOCC(=O)NCCCC[C@H](NC(=O)[C@H](CC(=O)O)NC(=O)[C@H](CO)NC(=O)[C@@H](NC(=O)[C@H](Cc1ccccc1)NC(=O)[C@@H](NC(=O)CNC(=O)[C@H](CCC(N)=O)NC(=O)C(C)(C)NC(=O)[C@@H](N)Cc1c[nH]cn1)[C@@H](C)O)[C@@H](C)O)C(=O)N[C@@H](CO)C(=O)N[C@@H](CCCCN)C(=O)N[C@@H](Cc1ccc(O)cc1)C(=O)N[C@@H](CC(C)C)C(=O)N[C@@H](CC(=O)O)C(=O)NC(C)(C)C(=O)N[C@@H](CCCNC(=N)N)C(=O)N[C@@H](CCCNC(=N)N)C(=O)N[C@@H](C)C(=O)N[C@@H](CCC(N)=O)C(=O)N[C@@H](CC(=O)O)C(=O)N[C@@H](Cc1ccccc1)C(=O)N[C@H](C(=O)N[C@@H](CCC(N)=O)C(=O)N[C@@H](Cc1c[nH]c2ccccc12)C(=O)N[C@@H](CC(C)C)C(=O)N[C@@H](CCSC)C(=O)N[C@@H](CC(N)=O)C(=O)N[C@H](C(=O)N[C@@H](CCCCN)C(=O)N[C@@H](CCC(=O)O)C(=O)N[C@@H](Cc1ccc(O)cc1)C(=O)N[C@@H](CCC(=O)O)C(=O)N[C@@H](CCCCNC(=O)CCCCCCCCCCCCCCC)C(=O)N[C@@H](CCC(=O)O)C(=O)N[C@@H](Cc1ccc(O)cc1)C(=O)N[C@@H](CCC(=O)O)C(=O)O)[C@@H](C)O)C(C)C)C(=O)O [Compound 9] | 73.3% | 0.1 to 1 nM | 6 to 12 h | < 12 h | 70.4% | 0.1 to 1 nM
2 | CCCCCCCCCCCCCCCCCC(=O)N[C@@H](CCC(=O)NCCOCCOCC(=O)NCCOCCOCC(=O)NCCCC[C@H](NC(=O)[C@H](CC(=O)O)NC(=O)[C@H](CO)NC(=O)[C@@H](NC(=O)[C@H](Cc1ccccc1)NC(=O)[C@@H](NC(=O)CNC(=O)[C@H](CCC(N)=O)NC(=O)C(C)(C)NC(=O)[C@@H](N)Cc1c[nH]cn1)[C@@H](C)O)[C@@H](C)O)C(=O)N[C@@H](CO)C(=O)N[C@@H](CCCCN)C(=O)N[C@@H](Cc1ccc(O)cc1)C(=O)N[C@@H](CC(C)C)C(=O)N[C@@H](CC(=O)O)C(=O)NC(C)(C)C(=O)N[C@@H](CCCNC(=N)N)C(=O)N[C@@H](CCCNC(=N)N)C(=O)N[C@@H](C)C(=O)N[C@@H](CCC(N)=O)C(=O)N[C@@H](CC(=O)O)C(=O)N[C@@H](Cc1ccccc1)C(=O)N[C@H](C(=O)N[C@@H](CCC(N)=O)C(=O)N[C@@H](Cc1c[nH]c2ccccc12)C(=O)N[C@@H](CC(C)C)C(=O)N[C@@H](CCSC)C(=O)N[C@@H](CC(N)=O)C(=O)N[C@H](C(=O)N[C@@H](CCCCN)C(=O)N[C@@H](CCC(=O)O)C(=O)N[C@@H](Cc1ccc(O)cc1)C(=O)N[C@@H](CCC(=O)O)C(=O)N[C@@H](CCCCNC(=O)[C@@H](N)CCCCNC(=O)COCCOCCNC(=O)COCCOCCNC(=O)COCCOCCNC(=O)CC[C@H](NC(=O)CCCCCCCCCCCCCCCCC(=O)O)C(=O)O)C(=O)N[C@@H](CCC(=O)O)C(=O)N[C@@H](Cc1ccc(O)cc1)C(=O)N[C@@H](CCC(=O)O)C(=O)O)[C@@H](C)O)C(C)C)C(=O)O [Compound 6] | 89.1% | 0.1 to 1 nM | 12 to 18 h | 12 to 24 h | 83.8% | 0.1 to 1 nM
3 | CCCCCCCCCCCCCCCCCC(=O)N[C@@H](CCC(=O)NCCOCCOCC(=O)NCCOCCOCC(=O)NCCCC[C@H](NC(=O)[C@H](CC(=O)O)NC(=O)[C@H](CO)NC(=O)[C@@H](NC(=O)[C@H](Cc1ccccc1)NC(=O)[C@@H](NC(=O)CNC(=O)[C@H](CCC(N)=O)NC(=O)C(C)(C)NC(=O)[C@@H](N)Cc1c[nH]cn1)[C@@H](C)O)[C@@H](C)O)C(=O)N[C@@H](CO)C(=O)N[C@@H](CCCCN)C(=O)N[C@@H](Cc1ccc(O)cc1)C(=O)N[C@@H](CC(C)C)C(=O)N[C@@H](CC(=O)O)C(=O)NC(C)(C)C(=O)N[C@@H](CCCNC(=N)N)C(=O)N[C@@H](CCCNC(=N)N)C(=O)N[C@@H](C)C(=O)N[C@@H](CCC(N)=O)C(=O)N[C@@H](CC(=O)O)C(=O)N[C@@H](Cc1ccccc1)C(=O)N[C@H](C(=O)N[C@@H](CCC(N)=O)C(=O)N[C@@H](Cc1c[nH]c2ccccc12)C(=O)N[C@@H](CC(C)C)C(=O)N[C@@H](CCSC)C(=O)N[C@@H](CC(N)=O)C(=O)N[C@H](C(=O)N[C@@H](CCCCN)C(=O)N[C@@H](CCC(=O)O)C(=O)N[C@@H](Cc1ccc(O)cc1)C(=O)N[C@@H](CCC(=O)O)C(=O)N[C@@H](CCCCNC(=O)CCCCCCCCCCCCC(N)=O)C(=O)N[C@@H](CCC(=O)O)C(=O)N[C@@H](Cc1ccc(O)cc1)C(=O)N[C@@H](CCC(=O)O)C(=O)O)[C@@H](C)O)C(C)C)C(=O)O [Compound 10] | 110% | < 0.1 nM | < 6 h | < 12 h | 105% | < 0.1 nM

More lines, now with the values ahead:

Row | Emax [1] | EC50 [1] | half-life ([2]; Monkey PK (S.C. half-life)) | half-life ([2]; monkey PK half-life) | Emax [3] | EC50 [3] | Structure (SMILES)
4 | 89.6% | < 0.1 nM | 6 to 12 h | < 12 h | 102% | < 0.1 nM | CCCCCCCCCCCCCCCCCC(=O)N[C@@H](CCC(=O)NCCOCCOCC(=O)NCCOCCOCC(=O)NCCCC[C@H](NC(=O)[C@H](CC(=O)O)NC(=O)[C@H](CO)NC(=O)[C@@H](NC(=O)[C@H](Cc1ccccc1)NC(=O)[C@@H](NC(=O)CNC(=O)[C@H](CCC(N)=O)NC(=O)C(C)(C)NC(=O)[C@@H](N)Cc1c[nH]cn1)[C@@H](C)O)[C@@H](C)O)C(=O)N[C@@H](CO)C(=O)N[C@@H](CCCCN)C(=O)N[C@@H](Cc1ccc(O)cc1)C(=O)N[C@@H](CC(C)C)C(=O)N[C@@H](CC(=O)O)C(=O)NC(C)(C)C(=O)N[C@@H](CCCNC(=N)N)C(=O)N[C@@H](CCCNC(=N)N)C(=O)N[C@@H](C)C(=O)N[C@@H](CCC(N)=O)C(=O)N[C@@H](CC(=O)O)C(=O)N[C@@H](Cc1ccccc1)C(=O)N[C@H](C(=O)N[C@@H](CCC(N)=O)C(=O)N[C@@H](Cc1c[nH]c2ccccc12)C(=O)N[C@@H](CC(C)C)C(=O)N[C@@H](CCSC)C(=O)N[C@@H](CC(N)=O)C(=O)N[C@H](C(=O)N[C@@H](CCCCN)C(=O)N[C@@H](CCC(=O)O)C(=O)N[C@@H](Cc1ccc(O)cc1)C(=O)N[C@@H](CCC(=O)O)C(=O)N[C@@H](CCCCNC(=O)COCCOCCNC(=O)COCCOCCNC(=O)COCCOCCNC(=O)CCCCCCCCCCCCCCC)C(=O)N[C@@H](CCC(=O)O)C(=O)N[C@@H](Cc1ccc(O)cc1)C(=O)N[C@@H](CCC(=O)O)C(=O)O)[C@@H](C)O)C(C)C)C(=O)O [Compound 12]
5 | 98.5% | < 0.1 nM | 6 to 12 h | < 12 h | 92.8% | < 0.1 nM | CCCCCCCCCCCCCCCCCC(=O)N[C@@H](CCC(=O)NCCOCCOCC(=O)NCCOCCOCC(=O)NCCCC[C@H](NC(=O)[C@H](CC(=O)O)NC(=O)[C@H](CO)NC(=O)[C@@H](NC(=O)[C@H](Cc1ccccc1)NC(=O)[C@@H](NC(=O)CNC(=O)[C@H](CCC(N)=O)NC(=O)C(C)(C)NC(=O)[C@@H](N)Cc1c[nH]cn1)[C@@H](C)O)[C@@H](C)O)C(=O)N[C@@H](CO)C(=O)N[C@@H](CCCCN)C(=O)N[C@@H](Cc1ccc(O)cc1)C(=O)N[C@@H](CC(C)C)C(=O)N[C@@H](CC(=O)O)C(=O)NC(C)(C)C(=O)N[C@@H](CCCNC(=N)N)C(=O)N[C@@H](CCCNC(=N)N)C(=O)N[C@@H](C)C(=O)N[C@@H](CCC(N)=O)C(=O)N[C@@H](CC(=O)O)C(=O)N[C@@H](Cc1ccccc1)C(=O)N[C@H](C(=O)N[C@@H](CCC(N)=O)C(=O)N[C@@H](Cc1c[nH]c2ccccc12)C(=O)N[C@@H](CC(C)C)C(=O)N[C@@H](CCSC)C(=O)N[C@@H](CC(N)=O)C(=O)N[C@H](C(=O)N[C@@H](CCCCN)C(=O)N[C@@H](CCC(=O)O)C(=O)N[C@@H](Cc1ccc(O)cc1)C(=O)N[C@@H](CCC(=O)O)C(=O)N[C@@H](CCCCNC(=O)CCCCCCCCCCCCCCC(N)=O)C(=O)N[C@@H](CCC(=O)O)C(=O)N[C@@H](Cc1ccc(O)cc1)C(=O)N[C@@H](CCC(=O)O)C(=O)O)[C@@H](C)O)C(C)C)C(=O)O [Compound 11]
6 | 99.4% | 0.1 to 1 nM | 18 to 24 h | 12 to 24 h | 93.6% | 0.1 to 1 nM | CCCCCCCCCCCCCCCCCC(=O)N[C@@H](CCC(=O)NCCOCCOCC(=O)NCCOCCOCC(=O)NCCCC[C@H](NC(=O)[C@H](CC(=O)O)NC(=O)[C@H](CO)NC(=O)[C@@H](NC(=O)[C@H](Cc1ccccc1)NC(=O)[C@@H](NC(=O)CNC(=O)[C@H](CCC(N)=O)NC(=O)C(C)(C)NC(=O)[C@@H](N)Cc1c[nH]cn1)[C@@H](C)O)[C@@H](C)O)C(=O)N[C@@H](CO)C(=O)N[C@@H](CCCCN)C(=O)N[C@@H](Cc1ccc(O)cc1)C(=O)N[C@@H](CC(C)C)C(=O)N[C@@H](CC(=O)O)C(=O)NC(C)(C)C(=O)N[C@@H](CCCNC(=N)N)C(=O)N[C@@H](CCCNC(=N)N)C(=O)N[C@@H](C)C(=O)N[C@@H](CCC(N)=O)C(=O)N[C@@H](CC(=O)O)C(=O)N[C@@H](Cc1ccccc1)C(=O)N[C@H](C(=O)N[C@@H](CCC(N)=O)C(=O)N[C@@H](Cc1c[nH]c2ccccc12)C(=O)N[C@@H](CC(C)C)C(=O)N[C@@H](CCSC)C(=O)N[C@@H](CC(N)=O)C(=O)N[C@H](C(=O)N[C@@H](CCCCN)C(=O)N[C@@H](CCC(=O)O)C(=O)N[C@@H](Cc1ccc(O)cc1)C(=O)N[C@@H](CCC(=O)O)C(=O)N[C@@H](CCCCNC(=O)COCCOCCNC(=O)COCCOCCNC(=O)COCCOCCNC(=O)CC[C@H](NC(=O)CCCCCCCCCCCCCCCCC(=O)O)C(=O)O)C(=O)N[C@@H](CCC(=O)O)C(=O)N[C@@H](Cc1ccc(O)cc1)C(=O)N[C@@H](CCC(=O)O)C(=O)O)[C@@H](C)O)C(C)C)C(=O)O [Compound 5]
